In US8163909B2, “Substituted hydroxyethyl amine compounds as beta-secretase modulators and methods of use” (Amgen Inc., priority 2007, dated 2012):

How the values were obtained:
[1] = Microsomal stability assay, human liver microsomes; settings: human liver microsomes;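 further: pooled human liver microsomes at 0.25 mg/mL with 1 µM compound and NADPH at 37 °C, pH 7.4, for 30 min, unchanged parent quantified by LC-MS/MS against the 0 min sample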
[2] = Microsomal stability assay, rat liver microsomes; settings: rat liver microsomes;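 further: rat liver microsomes (0.25 mg/mL) with about 1 µM compound plus 1 mM NADPH, pH 7.4, 37 °C for 30 min, parent left measured by LC-MS/MS against 0 min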
[3] = biological target: Beta Secretase enzyme (BACE) (Homo sapiens, UniProt P56817); assay: In vitro enzymatic BACE FRET (fluorescence resonance energy transfer) assay; assay type: biochemical; settings: BACE enzyme assay IC50; read-out: BACE1 FRET assay;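 further: fluorescence read after 1 h with 50 nM quenched peptide substrate spanning the BACE cleavage site, in pH 4.2 acetate buffer containing 10% DMSO and nonionic detergent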
[4] = biological target: CYP3A4 (CYP3A) (Homo sapiens, UniProt P08684); assay: in vitro; settings: microsomes, pH 7.4;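 further: inhibition of CYP3A-mediated 1-hydroxymidazolam formation after 10 min incubation with NADPH, quantified by HPLC MS relative to metabolite produced without test compound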
[5] = test system: Aβ40 in conditioned medium of cells stably expressing Amyloid Precursor Protein (APP); assay: In vitro BACE cell-based assay (Aβ40 in conditioned medium, sandwich ELISA); settings: Homo sapiens, HEK293, HEK cell-based assay IC50; read-out: HEK cell assay;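 further: compounds added as a dilution series, secreted peptide quantified by europium time-resolved fluorescence readout, potency fitted from percent of control versus compound concentration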
[6] = biological target: CYP2D6 (Homo sapiens, UniProt P10635); assay: CYP2D6 inhibition assay (bufuralol, pooled human liver microsomes); settings: 2D6 IC50 (uM), CYP2D6 inhibition
CYP2D6, sequence (P10635 whole entry): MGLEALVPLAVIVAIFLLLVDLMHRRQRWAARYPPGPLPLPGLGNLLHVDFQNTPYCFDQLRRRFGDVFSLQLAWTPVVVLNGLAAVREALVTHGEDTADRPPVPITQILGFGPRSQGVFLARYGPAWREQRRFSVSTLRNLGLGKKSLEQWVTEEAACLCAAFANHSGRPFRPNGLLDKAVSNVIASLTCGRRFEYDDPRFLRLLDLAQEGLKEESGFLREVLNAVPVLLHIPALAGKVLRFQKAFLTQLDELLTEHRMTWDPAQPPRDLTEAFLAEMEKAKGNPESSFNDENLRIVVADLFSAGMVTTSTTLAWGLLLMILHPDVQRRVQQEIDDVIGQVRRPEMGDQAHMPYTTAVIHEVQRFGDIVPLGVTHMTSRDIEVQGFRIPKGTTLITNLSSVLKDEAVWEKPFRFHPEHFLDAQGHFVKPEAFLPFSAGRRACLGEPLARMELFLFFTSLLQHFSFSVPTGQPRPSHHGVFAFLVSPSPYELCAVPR

CYP3A4 (CYP3A), sequence (P08684 2-503): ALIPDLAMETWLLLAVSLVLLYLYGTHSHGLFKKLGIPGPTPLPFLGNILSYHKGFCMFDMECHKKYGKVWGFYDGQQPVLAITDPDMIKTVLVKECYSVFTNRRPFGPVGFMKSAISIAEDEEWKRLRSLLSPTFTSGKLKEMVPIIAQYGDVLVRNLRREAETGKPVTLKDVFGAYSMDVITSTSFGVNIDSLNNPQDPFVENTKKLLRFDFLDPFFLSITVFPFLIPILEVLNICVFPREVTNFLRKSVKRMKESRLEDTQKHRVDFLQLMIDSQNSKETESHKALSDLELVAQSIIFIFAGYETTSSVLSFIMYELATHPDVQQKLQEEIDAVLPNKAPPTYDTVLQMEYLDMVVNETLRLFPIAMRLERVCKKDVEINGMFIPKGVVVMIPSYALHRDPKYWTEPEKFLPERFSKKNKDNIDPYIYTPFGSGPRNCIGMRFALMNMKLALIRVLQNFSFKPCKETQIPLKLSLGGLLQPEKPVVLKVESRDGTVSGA
Beta Secretase enzyme (BACE), sequence (P56817 46-501): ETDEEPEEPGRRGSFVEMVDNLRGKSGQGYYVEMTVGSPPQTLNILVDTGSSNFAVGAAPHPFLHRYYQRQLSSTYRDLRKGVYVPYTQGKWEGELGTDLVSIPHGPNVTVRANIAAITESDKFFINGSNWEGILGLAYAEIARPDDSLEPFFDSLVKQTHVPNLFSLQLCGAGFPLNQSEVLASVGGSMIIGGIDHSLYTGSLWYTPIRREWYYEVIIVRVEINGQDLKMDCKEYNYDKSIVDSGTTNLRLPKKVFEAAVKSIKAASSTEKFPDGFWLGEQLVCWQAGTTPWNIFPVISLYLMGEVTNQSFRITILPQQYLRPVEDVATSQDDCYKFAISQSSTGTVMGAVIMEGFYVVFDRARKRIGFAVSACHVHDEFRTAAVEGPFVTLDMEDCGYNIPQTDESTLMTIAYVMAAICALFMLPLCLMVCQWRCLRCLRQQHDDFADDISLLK

Compound	HLM [1]	RLM [2]	IC50 [3]	IC50 [4]	IC50 [5]	IC50 [6]
CO[C@H](C)C(=O)N[C@@H](Cc1ccc2c(c1)OCO2)[C@H](O)CN[C@H]1CC2(CCC2)Oc2c1cc(CC(C)C)nc2-c1ccncc1 [compound 670]	40 µL/min/mg	100 µL/min/mg	0.06 µM	≤ 0.03 µM	0.294 µM	0.8 µM
CC(=O)N[C@@H](Cc1cc(F)cc(-c2cscn2)c1)[C@H](O)CN[C@H]1CC2(CCC2)Oc2ncc(CC(C)(C)C)cc21 [compound 672]	358 µL/min/mg	134 µL/min/mg	0.004 µM	0.4 µM	0.005 µM	2.7 µM
CO[C@H](C)C(=O)N[C@@H](Cc1ccc2c(c1)OCO2)[C@H](O)CN[C@H]1CC(C)(C)Oc2ncc(CC(C)(C)C)cc21 [compound 674]	26 µL/min/mg	128 µL/min/mg	0.033 µM	0.1 µM	0.037 µM	10.5 µM
CO[C@H](C)C(=O)N[C@@H](Cc1ccc(F)c(F)c1)[C@H](O)CN[C@H]1CC(C)(C)Oc2ncc(CC(C)(C)C)cc21 [compound 675]	543 µL/min/mg	411 µL/min/mg	0.009 µM	2 µM	0.013 µM	21.8 µM
COCC(=O)N[C@@H](Cc1ccc(F)c(F)c1)[C@H](O)CN[C@H]1CC(C)(C)Oc2ncc(CC(C)(C)C)cc21 [compound 676]	463 µL/min/mg	411 µL/min/mg	0.01 µM	2 µM	0.011 µM	2.9 µM
CC(=O)N[C@@H](Cc1ccc2c(c1)OCO2)[C@H](O)CN[C@H]1CC(C)(C)Oc2ncc(CC(C)(C)C)cc21 [compound 679]	24 µL/min/mg	138 µL/min/mg	0.019 µM	0.2 µM	0.012 µM	5.7 µM
CNc1nc(CC(C)C)cc2c1OC1(CCC1)C[C@@H]2NC[C@@H](O)[C@H](Cc1ccc2c(c1)OCO2)NC(=O)[C@@H](C)OC [compound 680]	220 µL/min/mg	317 µL/min/mg	0.14 µM	0.5 µM	0.025 µM	14 µM
CNc1nc(CC(C)C)cc2c1OC1(CCC1)C[C@@H]2NC[C@@H](O)[C@H](Cc1ccc2c(c1)OCO2)NC(=O)COC [compound 681]	197 µL/min/mg	392 µL/min/mg	0.064 µM	0.8 µM	0.014 µM	9.2 µM
COCC(=O)N[C@@H](Cc1ccc(F)c(-c2cscn2)c1)[C@H](O)CN[C@H]1CC2(CCC2)Oc2ncc(CC(C)(C)C)cc21 [compound 683, N-((1S,2R)-3-(((4′S)-6′-(2,2-dimethylpropyl)-3′,4′-dihydrospiro[cyclobutane-1,2′-pyrano[2,3-b]pyridin]-4′-yl)amino)-1-(4-fluoro-3-(1,3-thiazol-4-yl)benzyl)-2-hydroxypropyl)-2-methoxyacetamide]	102 µL/min/mg	61 µL/min/mg	0.009 µM	0.2 µM	0.031 µM	2.3 µM
COCC(=O)N[C@@H](Cc1ccc(F)c(-c2cncs2)c1)[C@H](O)CN[C@H]1CC2(CCC2)Oc2ncc(CC(C)(C)C)cc21 [compound 684, N-((1S,2R)-3-(((4′S)-6′-(2,2-dimethylpropyl)-3′,4′-dihydrospiro[cyclobutane-1,2′-pyrano[2,3-b]pyridin]-4′-yl)amino)-1-(4-fluoro-3-(1,3-thiazol-5-yl)benzyl)-2-hydroxypropyl)-2-methoxyacetamide]	56 µL/min/mg	114 µL/min/mg	0.005 µM	0.1 µM	0.012 µM	0.2 µM
Cc1cccc(CN2CCO[C@@H](C(=O)N[C@@H](Cc3ccc(F)cc3)[C@H](O)CN[C@H]3CC4(CCC4)Oc4ncc(CC(C)(C)C)cc43)C2)c1 [compound 685]	662 µL/min/mg	283 µL/min/mg	0.013 µM	0.2 µM	0.012 µM	3.1 µM
CO[C@H](C)C(=O)N[C@@H](Cc1cc(F)cc(F)c1)[C@H](O)CN[C@H]1CC2(CCC2)Oc2c1cc(CC(C)C)nc2Cl [compound 686]	921 µL/min/mg	399 µL/min/mg	0.003 µM	0.2 µM	0.052 µM	6.1 µM
CO[C@H](C)C(=O)N[C@@H](Cc1cc(F)cc(F)c1)[C@H](O)CN[C@H]1CC2(CCC2)Oc2cnc(CC(C)C)cc21 [compound 688]	921 µL/min/mg	399 µL/min/mg	0.009 µM	0.2 µM	0.036 µM	3 µM
C#Cc1cc2c(c(-n3ccnc3)c1)OC1(CCC1)C[C@@H]2NC[C@@H](O)[C@H](Cc1cc(F)cc(F)c1)NC(=O)COC [compound 689]	18.5 µL/min/mg	44.5 µL/min/mg	0.038 µM	≤ 0.03 µM	0.027 µM	0.2 µM
Cc1cccc(CN2CCO[C@H](C(=O)N[C@@H](Cc3ccc(F)cc3)[C@H](O)CN[C@H]3CC4(CCC4)Oc4ncc(CC(C)(C)C)cc43)C2)c1 [compound 691]	543 µL/min/mg	426 µL/min/mg	0.078 µM	0.2 µM	0.104 µM	3 µM
Cc1ccccc1CN1CCO[C@@H](C(=O)N[C@@H](Cc2ccc(F)cc2)[C@H](O)CN[C@H]2CC3(CCC3)Oc3ncc(CC(C)(C)C)cc32)C1 [compound 692]	706 µL/min/mg	590 µL/min/mg	0.013 µM	0.2 µM	0.024 µM	5.1 µM
CC(=O)N[C@@H](Cc1ccc(-c2cscn2)cc1)[C@H](O)CN[C@H]1CC2(CCC2)Oc2ncc(CC(C)(C)C)cc21 [compound 693]	110 µL/min/mg	63 µL/min/mg	0.043 µM	0.2 µM	0.06 µM	2.9 µM
CC(=O)N[C@@H](Cc1ccc(-c2cncs2)cc1)[C@H](O)CN[C@H]1CC2(CCC2)Oc2ncc(CC(C)(C)C)cc21 [compound 694]	82 µL/min/mg	66 µL/min/mg	0.074 µM	0.2 µM	0.071 µM	0.3 µM
Cc1ccccc1CN1CCO[C@H](C(=O)N[C@@H](Cc2ccc(F)cc2)[C@H](O)CN[C@H]2CC3(CCC3)Oc3ncc(CC(C)(C)C)cc32)C1 [compound 697]	775 µL/min/mg	399 µL/min/mg	0.087 µM	0.2 µM	0.143 µM	2.7 µM
COCC(=O)N[C@H](Cc1cccc(-c2nccs2)c1)[C@@H](O)CN[C@H]1CC2(CCC2)Oc2ccc(CC(C)(C)C)cc21 [compound 701, N-((1R,2S)-3-(((4S)-6-(2,2-dimethylpropyl)-3,4-dihydrospiro[chromene-2,1′-cyclobutan]-4-yl)amino)-2-hydroxy-1-(3-(1,3-thiazol-2-yl)benzyl)propyl)-2-methoxyacetamide]	137 µL/min/mg	160 µL/min/mg	0.008 µM	0.2 µM	0.033 µM	0.7 µM
CC(=O)N[C@@H](Cc1ccc(F)cc1)[C@H](O)CN[C@H]1CC2(CCNC2)Oc2cnc(CC(C)(C)C)cc21 (stereo partly drawn) [compound 702]	14 µL/min/mg	26 µL/min/mg	36.4 µM	1.8 µM	0.454 µM	13.5 µM
CO[C@H](C)C(=O)N[C@@H](Cc1cc(F)cc(F)c1)[C@H](O)CN[C@H]1CC2(CCC2)Oc2c1cc(CC(C)C)nc2-c1nccn1C [compound 704]	20 µL/min/mg	44 µL/min/mg	0.03 µM	≤ 0.03 µM	0.024 µM	≥ 27 µM
COCC(=O)N[C@@H](Cc1cc(F)cc(F)c1)[C@H](O)CN[C@H]1CC2(CCC2)Oc2c1cc(C1CC1)cc2-n1ccnc1 [compound 706]	41 µL/min/mg	33 µL/min/mg	0.062 µM	0.1 µM	0.02 µM	0.3 µM
CO[C@H](C)C(=O)N[C@@H](Cc1cc(F)cc(F)c1)[C@H](O)CN[C@H]1CC2(CCC2)Oc2c1cc(C1CC1)cc2-n1ccnc1 [compound 707]	14 µL/min/mg	39 µL/min/mg	0.114 µM	≤ 0.03 µM	0.028 µM	0.6 µM
Cc1ccc(CN2CCO[C@H](C(=O)N[C@@H](Cc3ccc(F)cc3)[C@H](O)CN[C@H]3CC4(CCC4)Oc4ncc(CC(C)(C)C)cc43)C2)cc1 [compound 708]	310 µL/min/mg	278 µL/min/mg	0.154 µM	0.2 µM	0.257 µM	6.8 µM
Cc1ccc(CN2CCO[C@@H](C(=O)N[C@@H](Cc3ccc(F)cc3)[C@H](O)CN[C@H]3CC4(CCC4)Oc4ncc(CC(C)(C)C)cc43)C2)cc1 [compound 709]	614 µL/min/mg	375 µL/min/mg	0.028 µM	0.3 µM	0.038 µM	3.7 µM
CC(C)(C)Cc1cnc2c(c1)[C@@H](NC[C@@H](O)[C@H](Cc1ccc(F)cc1)NC(=O)[C@@H]1CN(Cc3ccccc3)CCO1)CC1(CCC1)O2 [compound 711]	706 µL/min/mg	399 µL/min/mg	0.04 µM	0.3 µM	0.124 µM	8.2 µM
